Earlier results as cited in patent publication US9687002B2, “Botanical antimicrobial microemulsions (BAMM)” (Indusco, Ltd., priority 2015, dated 2017).

Tested on: various fungi that commonly infect toenails

## Cc1ccc(C(C)C)c(O)c1 [Thymol]
  effectiveness against fungi: effective
